Tested on: human mixed lymphocyte reaction (MLR)
Assay: human mixed lymphocyte reaction (MLR) assay (immunosuppressant activity)
Format: cell-based
Conditions: Table 1
Experimental: The immunosuppressant activity of the compounds of the present invention was determined using the human mixed lymphocyte reaction (MLR) assay described by Kino, T. et al. in Transplantation Proceedings, XIX(5):36-39,Suppl.

Structure (SMILES) | IC50 (Lymphocyte) | IC50
CC[C@@H]1/C=C(\C)C[C@H](C)C[C@H](OC)[C@H]2O[C@@](O)(C(=O)C(=O)N3CCCC[C@H]3C(=O)O[C@H](/C(C)=C/[C@@H]3CC[C@@H](OC(=S)Oc4ccccc4)[C@H](OC)C3)[C@H](C)[C@@H](O)CC1=O)[C@H](C)C[C@@H]2OC [Example 1] | 0.7 nM | 
CC[C@@H]1/C=C(\C)C[C@H](C)C[C@H](OC)[C@H]2O[C@@](O)(C(=O)C(=O)N3CCCC[C@H]3C(=O)O[C@H](/C(C)=C/[C@@H]3CC[C@@H](O)[C@H](OC)C3)[C@H](C)C=CC1=O)[C@H](C)C[C@@H]2OC [Example 3] | 80 nM | 
CC[C@@H]1/C=C(\C)C[C@H](C)C[C@H](OC)[C@H]2O[C@@](O)(C(=O)C(=O)N3CCCC[C@H]3C(=O)O[C@H](/C(C)=C/[C@@H]3CCC(=O)[C@H](OC)C3)[C@H](C)[C@@H](O)CC1=O)[C@H](C)C[C@@H]2OC [Example 4] | 0.4 nM | 
CC[C@@H]1/C=C(\C)C[C@H](C)C[C@H](OC)[C@H]2O[C@@](O)(C(=O)C(=O)N3CCCC[C@H]3C(=O)O[C@H](/C(C)=C/[C@@H]3CC[C@@H](O)[C@H](OC)C3)[C@H](C)C(=O)CC1=O)[C@H](C)C[C@@H]2OC [Example 7] | 113 nM | 
CC[C@@H]1/C=C(\C)C[C@H](C)C[C@H](OC)[C@H]2O[C@@](O)(C(=O)C(=O)N3CCCC[C@H]3C(=O)O[C@H](/C(C)=C/[C@@H]3CC[C@@H](O)[C@H](OC)C3)[C@H](C)c3cc1nn3CCO)[C@H](C)C[C@@H]2OC [Example 8] | 380 nM | 
CC[C@@H]1/C=C(\C)C[C@H](C)C[C@H](OC)[C@H]2O[C@@](O)(C(=O)C(=O)N3CCCC[C@H]3C(=O)O[C@H](/C(C)=C/[C@@H]3CC[C@@H](OC(=N)C(Cl)(Cl)Cl)[C@H](OC)C3)[C@H](C)[C@@H](O)CC1=O)[C@H](C)C[C@@H]2OC [Example 9] | 0.02 nM | 
CC[C@@H]1/C=C(\C)C[C@H](C)C[C@H](OC)[C@H]2O[C@@](O)(C(=O)C(=O)N3CCCC[C@H]3C(=O)O[C@H](/C(C)=C/[C@@H]3CC[C@@H](OP(=O)(Oc4ccccc4)Oc4ccccc4)[C@H](OC)C3)[C@H](C)[C@@H](OP(=O)(Oc3ccccc3)Oc3ccccc3)CC1=O)[C@H](C)C[C@@H]2OC [Example 10] |  | 11.1 nM
CC[C@@H]1/C=C(\C)C[C@H](C)C[C@H](OC)[C@H]2O[C@@](O)(C(=O)C(=O)N3CCCC[C@H]3C(=O)O[C@H](/C(C)=C/[C@@H]3CC[C@@H](O)[C@H](OC)C3)[C@H](C)C(N3CCN(Cc4ccccc4)CC3)CC1=O)[C@H](C)C[C@@H]2OC (stereo partly drawn) [Example 16] | 191 nM | 
CC[C@@H]1/C=C(\C)C[C@H](C)C[C@H](OC)[C@H]2O[C@@](O)(C(=O)C(=O)N3CCCC[C@H]3C(=O)O[C@H](/C(C)=C/[C@@H]3CC[C@@H](O)[C@H](OC)C3)[C@H](C)C(N3CCN(C)CC3)CC1=O)[C@H](C)C[C@@H]2OC (stereo partly drawn) [Example 17] | 47.4 nM | 
CC[C@@H]1/C=C(\C)C[C@H](C)C[C@H](OC)[C@H]2O[C@@](O)(C(=O)C(=O)N3CCCC[C@H]3C(=O)O[C@H](/C(C)=C/[C@@H]3CC[C@@H](O)[C@H](OC)C3)[C@H](C)C(N3CCN(c4ccccc4)CC3)CC1=O)[C@H](C)C[C@@H]2OC (stereo partly drawn) [Example 18] | 119 nM | 
CC[C@@H]1/C=C(\C)C[C@H](C)C[C@H](OC)[C@H]2O[C@@](O)(C(=O)C(=O)N3CCCC[C@H]3C(=O)O[C@H](/C(C)=C/[C@@H]3CC[C@@H](O)[C@H](OC)C3)[C@H](C)[C@@H](OC(=O)CI)CC1=O)[C@H](C)C[C@@H]2OC [Example 21] | 9.3 nM | 
CC[C@@H]1/C=C(\C)C[C@H](C)C[C@H](OC)[C@H]2O[C@@](O)(C(=O)C(=O)N3CCCC[C@H]3C(=O)O[C@H](/C(C)=C/[C@@H]3CC[C@@H](OC(=O)CI)[C@H](OC)C3)[C@H](C)[C@@H](O)CC1=O)[C@H](C)C[C@@H]2OC [Example 23] | 1.4 nM | 
CC[C@@H]1/C=C(\C)C(O)[C@H](C)C[C@H](OC)[C@H]2O[C@@](O)(C(=O)C(=O)N3CCCC[C@H]3C(=O)O[C@H](/C(C)=C/[C@@H]3CC[C@@H](O)[C@H](OC)C3)[C@H](C)[C@@H](OC(=O)CI)CC1=O)[C@H](C)C[C@@H]2OC (stereo partly drawn) [Example 25] | 203 nM | 
CC[C@@H]1/C=C(\C)C(O)[C@H](C)C[C@H](OC)[C@H]2O[C@@](O)(C(=O)C(=O)N3CCCC[C@H]3C(=O)O[C@H](/C(C)=C/[C@@H]3CC[C@@H](OC(=O)CI)[C@H](OC)C3)[C@H](C)[C@@H](O)CC1=O)[C@H](C)C[C@@H]2OC (stereo partly drawn) [Example 26] | 125 nM | 
CC[C@@H]1/C=C(\C)C[C@H](C)C[C@H](OC)[C@H]2O[C@@](O)(C(=O)C(=O)N3CCCC[C@H]3C(=O)O[C@H](/C(C)=C/[C@@H]3CC[C@@H](O)[C@H](OC)C3)[C@H](C)C(N3CCNCC3)CC1=O)[C@H](C)C[C@@H]2OC (stereo partly drawn) [Example 27] | 521 nM | 

— patent US5604294A, “Macrocyclic immunomodulators” (priority 1994, dated 1997)
